# Structures can show the parent of a compound that is named as a salt.
# Legend:
# [1] = system: Staphylococcus aureus; assay: Antibacterial activity against Staphylococcus aureus ATCC 29213 assessed as bacterial growth inhibition incubated for 16 hrs by broth microdilution method; type: functional
# [2] = system: Staphylococcus aureus; assay: Antibacterial activity against methicillin-resistant Staphylococcus aureus 1862 assessed as bacterial growth inhibition incubated for 16 hrs by broth microdilution method; type: functional
# [3] = system: Staphylococcus aureus; assay: Antibacterial activity against methicillin-resistant Staphylococcus aureus 991 assessed as bacterial growth inhibition incubated for 16 hrs by broth microdilution method; type: functional
# [4] = system: Staphylococcus aureus; assay: Antibacterial activity against methicillin-resistant Staphylococcus aureus shhs-A1 assessed as bacterial growth inhibition incubated for 16 hrs by broth microdilution method; type: functional
# [5] = system: Vibrio alginolyticus; assay: Antibacterial activity against Vibrio alginolyticus ATCC 13214 assessed as bacterial growth inhibition incubated for 16 hrs by broth microdilution method; type: functional
# [6] = system: Staphylococcus aureus; assay: Antibacterial activity against methicillin-resistant Staphylococcus aureus 669 assessed as bacterial growth inhibition incubated for 16 hrs by broth microdilution method; type: functional
# [7] = (§1) Cytotoxicity against human MCF7 cells assessed as cell growth inhibition; type: toxicity, cell-based; settings: MCF7 cells
# [8] = system: Acinetobacter baumannii; assay: Antibacterial activity against Acinetobacter baumannii 19606 assessed as bacterial growth inhibition incubated for 16 hrs by broth microdilution method; type: functional
# [9] = system: Bacillus subtilis; assay: Antibacterial activity against Bacillus subtilis 1064 assessed as bacterial growth inhibition incubated for 16 hrs by broth microdilution method; type: functional
# [10] = (§2) Cytotoxicity against human HepG2 cells assessed as cell growth inhibition; type: toxicity, cell-based; settings: HepG2 cells
# [11] = system: MCF7; assay: as §1; type: toxicity, cell-based; settings: mcf7
# [12] = system: HepG2; assay: as §2; type: toxicity, cell-based; settings: hepg2
SMILES,MIC [1] [µg/mL],MIC [2] [µg/mL],MIC [3] [µg/mL],MIC [4] [µg/mL],MIC [5] [µg/mL],MIC [6] [µg/mL],IC50 [7] [µM],MIC [8] [µg/mL],MIC [9] [µg/mL],IC50 [10] [µM],Activity [11],Activity [12]
CCC[C@@H]1Cc2cc3c(c(O)c2C(=O)O1)-c1c(c(OC)c2oc4ccc(O[C@H]5C[C@@H](O)[C@H](O[C@H]6C[C@@H](O)[C@H](O[C@H]7C[C@@H](OC)[C@H](O)[C@@H](C)O7)[C@@H](C)O6)[C@@H](C)O5)c(O)c4c(=O)c2c1O)C[C@H]3O,0.125,0.125,0.5,0.125,> 64,0.5,0.12,> 64,> 64,0.25,,
CCC[C@@H]1Cc2cc3c(c(O)c2C(=O)O1)-c1c(c(OC)c2oc4ccc(O[C@H]5C[C@@H](O)[C@H](O[C@H]6C[C@@H](O)[C@H](O[C@H]7C[C@@H](OC)[C@H](O)[C@@H](C)O7)[C@@H](C)O6)[C@@H](C)O5)c(O)c4c(=O)c2c1O)[C@H](O)[C@H]3O,2,1,1,2,> 64,2,4.1,> 64,0.125,7.9,,
CN[C@H](CC(C)C)C(=O)N[C@H]1C(=O)N[C@@H](CC(N)=O)C(=O)N[C@H]2C(=O)N[C@H]3C(=O)N[C@H](C(=O)N[C@H](C(=O)O)c4cc(O)cc(O)c4-c4cc3ccc4O)[C@H](O)c3ccc(c(Cl)c3)Oc3cc2cc(c3O[C@@H]2O[C@H](CO)[C@@H](O)[C@H](O)[C@H]2O[C@H]2C[C@](C)(N)[C@H](O)[C@H](C)O2)Oc2ccc(cc2Cl)[C@H]1O [VANCOMYCIN],,,,,,,,,0.25,,,
CCC[C@@H]1Cc2cc3c(c(O)c2C(=O)O1)-c1c(c(OC)c2oc4ccc(O)c(O)c4c(=O)c2c1O)[C@H](O)[C@H]3O,8,4,8,8,32,8,0.46,64,16,13,,
CCC[C@@H]1Cc2cc3c(c(O)c2C(=O)O1)-c1c(c(OC)c2oc4ccc(O[C@H]5C[C@@H](O)[C@H](O)[C@@H](C)O5)c(O)c4c(=O)c2c1O)[C@H](O)[C@H]3O,0.5,1,2,0.5,> 64,2,0.76,> 64,4,31,,
O=C(O)c1cn(C2CC2)c2cc(N3CCNCC3)c(F)cc2c1=O [CIPROFLOXACIN],,,,,0.125,,,0.125,,,,
CCCC(=O)Cc1cc2c(c(O)c1C(=O)O)-c1cc3c(c(O)c1CC2)C(=O)c1c(O)cc(O)cc1C3=O,32,16,16,16,> 64,16,,> 64,> 64,,Non-Toxic,Non-Toxic
COc1cccc2c1C(=O)c1c(O)c3c(c(O)c1C2=O)C[C@@](O)(C(=O)CO)C[C@@H]3O[C@H]1C[C@H](N)[C@H](O)[C@H](C)O1 [DOXORUBICIN HYDROCHLORIDE],,,,,,,,,,3.1,,
CCC[C@@H]1Cc2cc3c(c(O)c2C(=O)O1)-c1c(c(OC)c2oc4ccc(O[C@H]5C[C@@H](O)[C@H](O[C@H]6C[C@@H](O)[C@H](O[C@H]7C[C@@H](O)[C@H](O)[C@@H](C)O7)[C@@H](C)O6)[C@@H](C)O5)c(O)c4c(=O)c2c1O)[C@H](O)[C@H]3O,2,1,2,2,> 64,2,1.8,> 64,1,4.4,,
